PubChem BioAssay AID2060499 (Molecular Pharmacology Branch, DTP, NCI, 2025)

Tested on: 777334-354-R2-J4-PDC tumor spheroids with HUVEC/MSC, viability
Assay: Anticancer human tumor 777334-354-R2-J4-PDC patient-derived pancreatic adenocarcinoma cell line growth inhibition [GQUAD]
Details: for IC50: curve of first compound; for viability, T/C: stronger effect = lower value; active = viability on the fitted dose curve at most 10% of control; inactive = the rest
From the text: DNA G-quadruplex Stabilizer Agents in Combinations in Complex Spheroids
A high-throughput screen of multi-cell type tumor spheroids was designed to identify active combinations of DNA G-quadruplex stabilizer agents and targeted small molecules. Complex spheroids include a stromal component modeled by human endothelial cells (HUVEC) and fibroblasts modeled by human mesenchymal stem cells (MSCs). The concentration ranges selected for each drug and investigational agent were based upon clinically achievable concentrations if the clinical Cmax of the agent was known.
Compounds. The drugs and investigational agents: pidnarulex (CX-5461; NSC782164), APTO-253 (NSC789042), BRACO-19 (NSC847499), peposertib (NSC802822), ceralasertib (NSC780249), elimusertib (NSC800525), camonsertib (NSC841442), AZD-1390 (NSC803789), olaparib (NSC753686), talazoparib (NSC767125), ART-558 (NSC835418), sotorasib (NSC818433), MRTX-1133 (NSC836407), SN-38 (NSC673596), topotecan (NSC609699), etoposide (NSC141540), doxorubicin (NSC123127), gemcitabine (NSC613327), 5-fluorouracil (NSC19893), paclitaxel (NSC125973), vemurafenib (NSC761431), panobinostat (NSC761190), R-306465 (JNJ-16241199; NSC773264), adavosertib (NSC754352), TP-3654 (NSC805149), carboplatin (NSC241240), KSQ-4279 (NSC840948), and staurosporine (NSC755774) were obtained from the National Cancer Institute (NCI) Developmental Therapeutics Program Chemical Repository (34). The FDA-approved anticancer drug set is available from the NCI Developmental Therapeutics Program. […] The stock solutions were prepared in dimethyl sulfoxide (DMSO, Sigma-Aldrich, St. Louis, MO, cat. D2650) at 800-fold the tested concentration and stored at -70 degrees C prior to their use. All drugs and investigational agents were tested over a range starting from a high concentration at or near the clinical Cmax and decreasing in half-log increments. If the clinical Cmax for an agent had not been determined, the highest concentration tested was 10 microM.
2.3 Cell Culture. All cells were maintained in an incubator at 37 degrees C and 5% CO2 with 95% humidity. The PDC lines were cultured according to standard operating procedures established by the NCI PDMR. All PDCs were thawed and cultured in Matrigel-coated flasks prepared with a working solution of 1X Ham's F-12 nutrient mix, without supplementation (Invitrogen, cat. 11765054), 100 U/mL penicillin-streptomycin (Invitrogen, cat. 15140122), and 2.5% Matrigel (Corning Inc., cat. 354248) for the first three passages. The 857933-349-R-J2-PDC line was cultured in 6C/Colon 1B media, which includes advanced DMEM/F-12 (Thermo Fisher Scientific, cat. 12634028), 10 mM HEPES (Thermo Fisher Scientific, cat. 15630080), 1X GlutaMAX supplement (Thermo Fisher Scientific, cat. 35050061), 0.1 mg/mL primocin (InvivoGen, cat. ant-pm-2), 10% defined fetal bovine serum, heat inactivated (HyClone Laboratories Inc., cat. SH30070.03HI), 50% L-WRN conditioned media (ATCC, cat. CRL-3276), 1.25 mM N-Acetyl-L-cysteine (Sigma-Aldrich, cat. A9165), 10 mM nicotinamide (Sigma-Aldrich, cat. N0636), 1X B-27 supplement (Thermo Fisher Scientific, cat. 17504044), 1X N-2 supplement (Thermo Fisher Scientific, cat. 17502048), 10 microM Y-27632 dihydrochloride (Tocris Bioscience, cat. 1254), and 50 ng/mL human EGF recombinant protein (Thermo Fisher Scientific, cat. PHG0311). The 485176-168-R4-J1-PDC line was cultured in Panc media, which includes all 6C/Colon 1B media components plus 100 ng/mL human FGF-10 (Thermo Fisher Scientific, cat. 100-26), 500 nM SB-431542 (Selleckchem, cat. S1067), and gastrin (Tocris, cat. 3006).
[…]

[1] = second compound 0.0316 µM, first compound 0.0316 µM
[2] = second compound 0.0316 µM, first compound 0.316 µM
[3] = second compound 0.1 µM, first compound 0.0316 µM
[4] = second compound 0.1 µM, first compound 0.316 µM
[5] = second compound 0.316 µM, first compound 0.0316 µM
[6] = second compound 0.316 µM, first compound 0.316 µM
[7] = second compound 1 µM, first compound 0.0316 µM
[8] = second compound 1 µM, first compound 0.316 µM
[9] = second compound 3.16 µM, first compound 0.0316 µM
[10] = second compound 3.16 µM, first compound 0.316 µM
[11] = second compound 10 µM, first compound 0.0316 µM
[12] = second compound 10 µM, first compound 0.316 µM
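Note: spheroids exposed to compounds for 7 days before readout.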

C=CCn1c(=O)c2cnc(Nc3ccc(N4CCN(C)CC4)cc3)nc2n1-c1cccc(C(C)(C)O)n1 + CN(C)c1ccc(Nc2c3ccc(NC(=O)CCN4CCCC4)cc3nc3cc(NC(=O)CCN4CCCC4)ccc23)cc1
inactive: viability, T/C [1] 101% | viability, T/C (second compound 0.0316 µM, first compound 0.1 µM) 94.8% | viability, T/C [2] 81.6% | viability, T/C (second compound 0.0316 µM, first compound 1 µM) 38.8% | viability, T/C (second compound 0.0316 µM, first compound 3.16 µM) 36.5% | viability, T/C (second compound 0.0316 µM, first compound 10 µM) 37.6% | viability, T/C [3] 103% | viability, T/C (second compound 0.1 µM, first compound 0.1 µM) 91.1% | viability, T/C [4] 84.6% | viability, T/C (second compound 0.1 µM, first compound 1 µM) 46.1% | viability, T/C (second compound 0.1 µM, first compound 3.16 µM) 36.8% | viability, T/C (second compound 0.1 µM, first compound 10 µM) 35.9% | viability, T/C [5] 105% | viability, T/C (second compound 0.316 µM, first compound 0.1 µM) 89.8% | viability, T/C [6] 77.2% | viability, T/C (second compound 0.316 µM, first compound 1 µM) 45.9% | viability, T/C (second compound 0.316 µM, first compound 3.16 µM) 38.4% | viability, T/C (second compound 0.316 µM, first compound 10 µM) 33.9% | viability, T/C [7] 87% | viability, T/C (second compound 1 µM, first compound 0.1 µM) 82.5% | viability, T/C [8] 78% | viability, T/C (second compound 1 µM, first compound 1 µM) 42.8% | viability, T/C (second compound 1 µM, first compound 3.16 µM) 38.9% | viability, T/C (second compound 1 µM, first compound 10 µM) 35.2% | viability, T/C [9] 92.9% | viability, T/C (second compound 3.16 µM, first compound 0.1 µM) 81.4% | viability, T/C [10] 68% | viability, T/C (second compound 3.16 µM, first compound 1 µM) 41% | viability, T/C (second compound 3.16 µM, first compound 3.16 µM) 39.2% | viability, T/C (second compound 3.16 µM, first compound 10 µM) 33.2% | viability, T/C [11] 90.1% | viability, T/C (second compound 10 µM, first compound 0.1 µM) 81.7% | viability, T/C [12] 59.3% | viability, T/C (second compound 10 µM, first compound 1 µM) 39.8% | viability, T/C (second compound 10 µM, first compound 3.16 µM) 34.1% | viability, T/C (second compound 10 µM, first compound 10 µM) 25.1%
732 nM: IC50 (second compound 3.16 µM)
961 nM: IC50 (second compound 0.316 µM)
793 nM: IC50 (second compound 1 µM)
576 nM: IC50 (second compound 10 µM)
746 nM: IC50 (second compound 0.0316 µM)
907 nM: IC50 (second compound 0.1 µM)

CCc1c2c(nc3ccc(O)cc13)-c1cc3c(c(=O)n1C2)COC(=O)[C@]3(O)CC + Cc1[nH]c2ccc(F)cc2c1-c1nc2c3cccnc3c3ncccc3c2[nH]1
inactive: viability, T/C (second compound 0.0316 µM, first compound 0.000999 µM) 85.3% | viability, T/C (second compound 0.0316 µM, first compound 0.00316 µM) 54.5% | viability, T/C (second compound 0.0316 µM, first compound 0.00999 µM) 44.7% | viability, T/C [1] 27.3% | viability, T/C (second compound 0.0316 µM, first compound 0.0999 µM) 15% | viability, T/C (second compound 0.1 µM, first compound 0.000999 µM) 92.8% | viability, T/C (second compound 0.1 µM, first compound 0.00316 µM) 60.4% | viability, T/C (second compound 0.1 µM, first compound 0.00999 µM) 45% | viability, T/C [3] 22.2% | viability, T/C (second compound 0.1 µM, first compound 0.0999 µM) 14.7% | viability, T/C (second compound 0.316 µM, first compound 0.000999 µM) 83.6% | viability, T/C (second compound 0.316 µM, first compound 0.00316 µM) 60.9% | viability, T/C (second compound 0.316 µM, first compound 0.00999 µM) 38.2% | viability, T/C [5] 26.4% | viability, T/C (second compound 0.316 µM, first compound 0.0999 µM) 18.1% | viability, T/C [6] 11.1% | viability, T/C (second compound 1 µM, first compound 0.000999 µM) 70.7% | viability, T/C (second compound 1 µM, first compound 0.00316 µM) 51.1% | viability, T/C (second compound 1 µM, first compound 0.00999 µM) 34.9% | viability, T/C [7] 23.9% | viability, T/C (second compound 1 µM, first compound 0.0999 µM) 16.9% | viability, T/C (second compound 3.16 µM, first compound 0.000999 µM) 34.4% | viability, T/C (second compound 3.16 µM, first compound 0.00316 µM) 20.1% | viability, T/C (second compound 3.16 µM, first compound 0.00999 µM) 15.9% | viability, T/C (second compound 10 µM, first compound 0.000999 µM) 26% | viability, T/C (second compound 10 µM, first compound 0.00316 µM) 17.6% | viability, T/C (second compound 10 µM, first compound 0.00999 µM) 13.1%
< 0.999 nM: IC50 (second compound 3.16 µM) | IC50 (second compound 10 µM)
5.58 nM: IC50 (second compound 0.0316 µM)
6.14 nM: IC50 (second compound 0.1 µM)
5.57 nM: IC50 (second compound 0.316 µM)
active: viability, T/C [2] 9.55% | viability, T/C [4] 9.29% | viability, T/C [8] 8.25% | viability, T/C [9] 9.11% | viability, T/C (second compound 3.16 µM, first compound 0.0999 µM) 7.06% | viability, T/C [10] 4.83% | viability, T/C [11] 7.08% | viability, T/C (second compound 10 µM, first compound 0.0999 µM) 6.95% | viability, T/C [12] 5.09%
3.44 nM: IC50 (second compound 1 µM)
